Laboratory results as given in US20260034277A1, “SYSTEMS AND METHODS FOR PATHOGEN INACTIVATION OF BLOOD PRODUCTS” (Cerus Corporation, priority 2024, published 2026).

Columns and labels:
[1] = S-59 photoconversion in platelets after dosing-device delivery, HPLC pre- and post-illumination; assay type: physicochemical; details: target 55 μM
Method: After confirming the accuracy of S-59 dosing into PAS, the next study evaluated dosing of S-59 into a blood component, platelets suspended in plasma and PAS, and photoconversion of S-59 post-UVA treatment to determine residual S-59 levels and generate (e.g., plot) a volume to light dose curve, similar to Example 1. Different size illumination containers (1.0 L and 1.3 L) were evaluated with multiple different platelet volumes and multiple different UVA light doses used for photochemical treatment of each volume and container size.
More specifically, platelets suspended in […]/53% PAS at volumes of 200 mL, 250 mL or 300 mL in a 1.0 L illumination container, and 300 mL, 350 mL or 450 mL in a 1.3 L illumination container, were dosed at varying input volumes of the S-59 psoralen compound to achieve a target final concentration of 55 μM. Samples were taken to confirm pre-illumination S-59 concentration and each of the S-59 containing platelet volumes was then illuminated with different light doses as shown in the following Tables 8A and 8B using an illuminator device with LED light sources (e.g., narrow bandwidth) having peak wavelength between 340-350 nm.
Pathogen inactivation of both viruses and bacteria was also tested using dosing device system-based quantized dosing of amotosalen and the treatment parameters described above. In one study, four units of platelets in 47% plasma/53% PAS at a higher 450 mL volume were inoculated in a 1.3 L illumination container with bluetongue virus (BTV) at a target pathogen input concentration of approximately 5.0 log PFU/mL per unit and dosed with amotosalen (S-59) to achieve at a target concentration of 55 μM. The units were mixed, and samples were collected from each unit prior to UV illumination to determine pre-treatment viral titers and S-59 concentration. The BTV-contaminated platelet units were then subjected to a UVA light dose of 6.3 J/cm^2 using an illuminator with LED light sources having peak wavelength between 340-350 nm. Samples were collected post-illumination, and both the pre- and post-UVA illumination samples were analyzed by standard plaque assay to determine the level of virus inactivation and by HPLC to determine the S-59 concentration.
A similar study was performed with the bacterium Klebsiella pneumoniae. Four units of platelets in 47% plasma/53% PAS at a volume of 450 mL were inoculated in a 1.3 L illumination container with an overnight culture of Klebsiella pneumoniae at a target input pathogen concentration of approximately 8 log CFU/mL per unit and dosed with S-59 to achieve a target concentration of 55 μM. Samples were collected pre- and post-UVA illumination with a light dose of 6.3 J/cm^2 for determination of bacterial titers by standard colony forming unit assay and S-59 concentration by HPLC.

[2] = Residual amotosalen (S-59) pre- and post-UVA in treated platelets, HPLC, manual dosing; assay type: physicochemical; details: for Post-UVA S-59: platelets 47% plasma/53% PAS
Method: Multiple studies were performed to determine the level of residual compound remaining after photochemical treatment of platelets with a psoralen for pathogen inactivation. More specifically, the studies were performed using a range of platelet volumes (e.g., 200 mL-450 mL; 50 mL volume increments) and using a single initial input concentration of the psoralen compound, amotosalen (S-59) by changing input volume. For each volume tested, units of platelets, prepared in 47% plasma/53% PAS, were pooled and split into two to three individual units, each in an illumination container of an INTERCEPT® Blood System processing set. The individual units were each dosed with amotosalen from an initial starting concentration (e.g., stock solution) at a volume needed to achieve a final 70 μM target concentration for each platelet volume, mixed well, and subjected to illumination with UVA light. The doses of UVA light tested for each volume included, for example, one or more light doses ranging from 2.5 J/cm^2 to 6.5 J/cm^2. (e.g., 2.5-4.5 J/cm^2 for 200 mL, 3.5-4.0 J/cm^2 for 250 mL 4.5-6.5 J/cm^2 for 300 mL, 5.2 J/cm^2 for 350 mL, 5.5-6.5 J/cm^2 for 400 mL, 6.4-6.5 J/cm^2 for 450 mL). UVA treatment was performed in the illumination container using an illuminator device with LED light (e.g., narrow bandwidth) having peak wavelength between 340-350 nm. Samples were collected both pre- and post-UVA illumination for HPLC analysis of amotosalen concentration.
From the multiple studies above, UVA light doses that provided low residual amotosalen levels (e.g., less than 7.5 μM) post-UVA treatment were selected for each specified platelet volume. These light doses are shown in Table 1 below, together with a corresponding measured volume of platelets, which the light dose may be used in conjunction with. This exemplary light dose and volume relationship identified in the studies may be further defined in the graph of FIG. 4A, which plots UVA light dose versus volume for achieving low residual amotosalen levels.
Each of the 40 μM, 50 μM, 60 μM and 70 μM test conditions used 250 mL sample volumes and UVA light doses of 3.8 J/cm^2. Amotosalen concentrations were determined before and after illumination with UVA.

## Cc1oc2c(C)c3oc(=O)cc(C)c3cc2c1COCCN [S-59, 3-(2-aminoethoxymethyl)-2,5,9-trimethylfuro[3,2-g]chromen-7-one]
[1]; 1.0 L container, 200 mL platelets, 2.8 J/cm^2
  Post-UVA S-59: 5.22 ± 0.50 µM
[1]; 1.0 L container, 200 mL platelets, 3.0 J/cm^2
  Post-UVA S-59: 4.40 ± 0.64 µM
[1]; 1.0 L container, 200 mL platelets, 3.2 J/cm^2
  Post-UVA S-59: 3.71 ± 0.07 µM
[1]; 1.0 L container, 200 mL platelets, 3.4 J/cm^2
  Post-UVA S-59: 3.09 ± 0.18 µM
[1]; 1.0 L container, 250 mL platelets, 3.4 J/cm^2
  Post-UVA S-59: 4.25 ± 0.13 µM
[1]; 1.0 L container, 250 mL platelets, 3.6 J/cm^2
  Post-UVA S-59: 3.83 ± 0.74 µM
[1]; 1.0 L container, 250 mL platelets, 3.8 J/cm^2
  Post-UVA S-59: 3.81 ± 0.49 µM
[1]; 1.0 L container, 250 mL platelets, 4.0 J/cm^2
  Post-UVA S-59: 3.11 ± 1.18 µM
[1]; 1.0 L container, 300 mL platelets, 4.1 J/cm^2
  Post-UVA S-59: 7.13 ± 2.95 µM
[1]; 1.0 L container, 300 mL platelets, 4.3 J/cm^2
  Post-UVA S-59: 6.85 ± 3.00 µM
[1]; 1.0 L container, 300 mL platelets, 4.6 J/cm^2
  Post-UVA S-59: 2.86 ± 1.36 µM
[1]; 1.0 L container, 300 mL platelets, 4.8 J/cm^2
  Post-UVA S-59: 3.63 ± 1.66 µM
[1]; 1.3 L container, 300 mL platelets, 4.1 J/cm^2
  Post-UVA S-59: 4.64 ± 0.13 µM
[1]; 1.3 L container, 300 mL platelets, 4.3 J/cm^2
  Post-UVA S-59: 3.43 ± 1.30 µM
[1]; 1.3 L container, 350 mL platelets, 4.8 J/cm^2
  Post-UVA S-59: 3.54 ± 1.01 µM
[1]; 1.3 L container, 350 mL platelets, 5.0 J/cm^2
  Post-UVA S-59: 2.98 ± 0.91 µM
[1]; 1.3 L container, 450 mL platelets, 6.1 J/cm^2
  Post-UVA S-59: 3.79 ± 0.49 µM
[1]; 1.3 L container, 450 mL platelets, 6.3 J/cm^2
  Post-UVA S-59: 3.56 ± 0.37 µM
[1]; BTV-inoculated units, 450 mL platelets, 1.3 L container, 6.3 J/cm^2
  Post-UVA S-59: 3.0 ± 0.7 µM
[1]; K. pneumoniae-inoculated units, 450 mL platelets, 1.3 L container, 6.3 J/cm^2
  Post-UVA S-59: 3.2 ± 0.5 µM
[2]; 200 mL, target 70 μM, UVA 3.2 J/cm^2
  Post-UVA S-59: 4.5 ± 1.5 µM
[2]; 250 mL, target 70 μM, UVA 3.8 J/cm^2
  Post-UVA S-59: 5.0 ± 1.1 µM
[2]; 300 mL, target 70 μM, UVA 4.5 J/cm^2
  Post-UVA S-59: 5.1 ± 1.3 µM
[2]; 350 mL, target 70 μM, UVA 5.2 J/cm^2
  Post-UVA S-59: 5.0 ± 0.6 µM
[2]; 400 mL, target 70 μM, UVA 6.0 J/cm^2
  Post-UVA S-59: 4.4 ± 0.8 µM
[2]; 450 mL, target 70 μM, UVA 6.4 J/cm^2
  Post-UVA S-59: 5.2 ± 0.8 µM
[2]; target 40 μM, 250 mL, UVA 3.8 J/cm^2
  Post-UVA residual amotosalen concentration: 2.3 ± 0.7 µM
[2]; target 50 μM, 250 mL, UVA 3.8 J/cm^2
  Post-UVA residual amotosalen concentration: 3.0 ± 0.8 µM
[2]; target 60 μM, 250 mL, UVA 3.8 J/cm^2
  Post-UVA residual amotosalen concentration: 3.9 ± 1.4 µM
[2]; target 70 μM, 250 mL, UVA 3.8 J/cm^2
  Post-UVA residual amotosalen concentration: 5.0 ± 1.1 µM
